Experimental data reported in patent publication US6605611B2, “Base analogues” (Nycomed Amersham PLC, priority 1997, dated 2003).

How the values were obtained:
Assay type in all cases: biochemical
[1] = target: terminal deoxynucleotidyl transferase (Bos taurus, UniProt P06526); assay: oligonucleotide tailing reaction with terminal deoxynucleotidyl transferase; conditions: 32 μM nucleotide, 25 U terminal deoxynucleotidyl transferase, 15 mer primer, 90 minutes at 37° C.
Source text: 1-(2′-deoxy-5′-triphospho-β-D-ribofuranosyl)piperidino[2,3-d]pyrimidine-2(1H)-one (1.6), 6-methylamine-3-(5-triphospho-2-deoxy-β-D-erythro-pentofuranosyl)furano[2,3-d]pyrimidin-2-one) (3.3a) and 5-FAM-(6-methylamine-3-(5-triphospho-2-deoxy-β-D-erythro-pentofuranosyl)furano[2,3-d]pyrimidin-2-one) (3.3b), 6-methyl-N-(6-amino)-caproamide-3-(5-triphospho-2-deoxy-β-D-erythro-pentofuranosyl)furano[2,3-d]pyrimidin-2-one (4.3a) and 5-FAM-(6-methyl-N-(6-amino)-caproamide-3-(5-triphospho-2-deoxy-β-D-erythro-pentofuranosyl)furano[2,3-d]pyrimidin-2-one) (4.3b), 6-methylamine-3-(5-triphospho-2-deoxy-β-D-erythro-pentofuranosyl)pyrrolo[2,3-d]pyrimidin-2-one) (8.1), 6-methyl-N-(6-amino)-caproamide-3-(5-triphospho-2-deoxy-β-D-erythro-pentofuranosyl)pyrrolo[2,3-d]pyrimidin-2-one (10.1a), and the FAM and Cy5 of (10.1a, e.g. 10.1b and 10.1c) as substrates for terminal deoxynucleotidyl transferase. In order to test the ability of compounds (1.6), (3.3a), (3.3b), (4.3a), (4.3b), (8.1), (10.1a), (10.1b) and (10.1c) to be accepted by terminal deoxynucleotidyl transferase as a substrate, an oligonucleotide tailing reaction was performed.
A 15 mer primer (sequence: 5′ TGC ATG TGC TGG AGA 3′) and 8 to 32 base oligonucleotide markers were 5′ end labelled with [γ^33P] ATP and T4 polynucleotide kinase. Reactions were boiled for 5 minutes after labelling to remove any PNK activity. Four picomoles of the labelled primer, 25 U terminal deoxynucleotidyl transferase and 32 μM dATP, dCTP, dGTP, dTTP or compounds (1.6), (3.3a), (3.3b), (4.3a), (4.3b), (8.1), (10.1a), (10.1b) and (10.1c) were incubated in 25 μl 100 mM cacodylate buffer pH7.2, 2 mM CoCl2 and 0.2 mM 2-mercaptoethanol for 90 minutes at 37° C. The reactions were stopped by the addition of formamide stop solution and the reaction products run on a 19% polyacrylamide 7M urea gel with the labelled markers. Autoradiography using Biomax film was carried out on the dry gel.

[2] = system: exonuclease free Klenow fragment of DNA polymerase I (EFK); assay: primer extension assay, EFK, Templates 1 and 2, Example 13; conditions: for substrate for the polymerase (EFK), incorporation: 20 μM total nucleotide, 37° C. for 3 minutes, Template 1 or Template 2; for substrate quality compared with the analogue with the shorter linker arm: EFK primer extension, 20 μM
Description: A primer extension assay was used to evaluate compounds (3.3a), (3.3b), (4.3a),(4.3b) and (8.1) as substrates for exonuclease free Klenow fragment of DNA polymerase I (EFK). The assay used a ^33P 5′ end labelled 15 mer primer hybridised to one of two 24 mer templates. The sequences of the primer and templates are:
(§1) One picomole ^33P labelled primer was hybridised to 2 picomoles of template in ×2 Klenow buffer. To this was added either 20 μM dCTP or 20 μM (3.3a) or 20 μM (3.3b) or 20 μM (4.3a) or 20 μM (4.3b) or 20 μM (8.1) or mixtures of dCTP and compound (3.3a) or (3.3b) or (4.3a) or (4.3b) or (8.1) keeping the total nucleotide concentration fixed at 20 μM. One unit EFK and 2 mU inorganic pyrophosphatase were used per reaction. Primer alone, primer plus template plus enzyme controls were also carried out. The reactions were incubated at 37° C. for 3 minutes. Reactions were then stopped by the addition of formamide/EDTA stop solution. Reaction products were separated on a 19% polyacrylamide 7M urea gel and the product fragments sized by comparison with a ^33P labelled 8 to 32 base oligonucleotide ladder after exposure to Kodak Biomax autoradiography film.

[3] = system: exonuclease free Klenow fragment of DNA polymerase I (EFK); assay: primer extension assay, EFK, Example 14; conditions: 80 μM (1.6), with or without 4 μM dNTPαS, 37° C. for 3 minutes
Description: A primer extension assay was used to evaluate compound (1.6) as a substrate for exonuclease free Klenow fragment of DNA polymerase I (EFK). The assay used a ^33P 5′ end labelled 15 mer primer hybridised to a 24 mer template. The sequences of the primer and template are:
One picomole ^33P labelled primer was hybridised to 2 picomoles of template in ×2 Klenow buffer. To this was added either 4 μM dNTPαS or 80 μM (1.6) or a mixture of 4 μM dNTPαS 80 μM (1.6). One unit EFK and 2 mU inorganic pyrophosphatase were used per reaction. Primer alone, primer plus template plus enzyme controls were also carried out. The reactions were incubated at 37° C. for 3 minutes. Reactions were then stopped by the addition of formamide I EDTA stop solution. Reaction products were separated on a 19% polyacrylamide 7M urea gel and the product fragments sized by comparison with a ^33P labelled 8 to 32 base oligonucleotide ladder after exposure to Kodak Biomax autoradiography film.

[4] = system: AMV reverse transcriptase; assay: 1st strand cDNA synthesis, incorporation monitored by 33P-dATP spike, TLC and gel
Description: Incorporation of compound (10.1a) into 1st strand cDNA was carried out using a balance of dCTP such that the total concentration of (10.1a) and dCTP was equivalent to each of the other three dNTP concentrations.
(10.1a) was used at three different percentages
These reactions were compared with reactions including Cy5 labelled dCTP. All reactions were monitored by carrying out the reaction in duplicate and monitoring one of the duplicates with a spike of ^33P-dATP.
1 μl ^33P-dATP-active samples only
1 μl AMV reverse transcriptase 20 U/μl
Incubate at 42° C. for 2½ hours
The cDNA reactions were monitored by TLC as follows
1 μl of sample was spotted onto PEI cellulose TLC plates and run in 1.25M Potassium phosphate buffer
Samples were then purified by Qiagen column and eluted in 50 μl of water. The active cDNA products were analysed on a 6% polyacrylamide gel
The gel was then covered in Saran wrap and exposed to phosphorscreen for 1 hour. Phosphorscreen analysis was carried out on the Molecular Dynamics Storm 860 instrument.

[5] = target: Thermus aquaticus DNA polymerase (Thermus aquaticus, UniProt P19821); assay: incorporation into arabidopsis DNA by PCR; conditions: 5% to 50% (10.1a), balance dCTP, 35 cycles
Chain of Thermus aquaticus DNA polymerase (P19821 whole entry): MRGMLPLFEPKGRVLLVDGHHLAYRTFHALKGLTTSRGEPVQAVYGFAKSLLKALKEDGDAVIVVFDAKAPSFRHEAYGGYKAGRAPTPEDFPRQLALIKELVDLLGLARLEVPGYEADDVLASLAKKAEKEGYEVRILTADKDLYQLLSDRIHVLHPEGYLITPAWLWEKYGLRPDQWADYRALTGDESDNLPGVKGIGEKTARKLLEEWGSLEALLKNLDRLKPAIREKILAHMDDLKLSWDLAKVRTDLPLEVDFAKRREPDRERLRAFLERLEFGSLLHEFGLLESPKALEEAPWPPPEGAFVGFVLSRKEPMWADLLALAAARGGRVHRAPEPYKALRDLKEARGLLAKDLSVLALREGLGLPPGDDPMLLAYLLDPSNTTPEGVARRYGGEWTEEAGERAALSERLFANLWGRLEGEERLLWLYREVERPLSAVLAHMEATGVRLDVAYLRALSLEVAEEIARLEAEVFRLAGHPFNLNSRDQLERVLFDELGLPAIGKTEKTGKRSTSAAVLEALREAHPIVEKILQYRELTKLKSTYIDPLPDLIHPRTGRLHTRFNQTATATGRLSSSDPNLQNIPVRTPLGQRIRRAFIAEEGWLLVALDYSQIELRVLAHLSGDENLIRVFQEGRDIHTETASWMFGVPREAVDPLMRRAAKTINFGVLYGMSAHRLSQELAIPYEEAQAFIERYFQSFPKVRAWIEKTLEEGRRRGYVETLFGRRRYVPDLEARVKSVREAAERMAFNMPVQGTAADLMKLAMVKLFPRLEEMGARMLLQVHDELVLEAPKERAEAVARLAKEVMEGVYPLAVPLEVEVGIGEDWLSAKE
Description: Incorporation of (10.1a) into arabidopsis DNA by PCR was carried out as follows:
The (10.1a) was used in the PCR at various percentages with a balance of dCTP such that the total concentration of (10.1a) and dCTP was equivalent to each of the other three base dNTP's. The percentages of (10.1a) used were:
After PCR, the samples were purified by Qiagen column and analysed by 1% agarose gel.

[6] = system: exonuclease free Klenow fragment of DNA polymerase I (EFK); assay: primer extension assay, EFK, Example 12; conditions: 20 μM total nucleotide, 37° C. for 3 minutes, 24 mer template
Description: A primer extension assay was used to evaluate compounds (10.1a), (10.1b) and (10.1c) as substrates for exonuclease free Klenow fragment of DNA polymerase I (EFK). The assay used a ^33P 5′ end labelled 15 mer primer hybridised to a 24 mer template. The sequences of the primer and template are:
as §1, with “μM (10.1a)” for “μM (3.3a)”, “μM (10.1b)” for “μM (3.3b)”, “μM (10.1c)” for “μM (4.3a) or 20 μM (4.3b) or 20 μM (8.1)”, “compound (10.1a)” for “compound (3.3a)”, “or compound (10.1b)” for “or (3.3b)”, “or compound (10.1c)” for “or (4.3a) or (4.3b) or (8.1)”

Chain of terminal deoxynucleotidyl transferase (P06526 whole entry): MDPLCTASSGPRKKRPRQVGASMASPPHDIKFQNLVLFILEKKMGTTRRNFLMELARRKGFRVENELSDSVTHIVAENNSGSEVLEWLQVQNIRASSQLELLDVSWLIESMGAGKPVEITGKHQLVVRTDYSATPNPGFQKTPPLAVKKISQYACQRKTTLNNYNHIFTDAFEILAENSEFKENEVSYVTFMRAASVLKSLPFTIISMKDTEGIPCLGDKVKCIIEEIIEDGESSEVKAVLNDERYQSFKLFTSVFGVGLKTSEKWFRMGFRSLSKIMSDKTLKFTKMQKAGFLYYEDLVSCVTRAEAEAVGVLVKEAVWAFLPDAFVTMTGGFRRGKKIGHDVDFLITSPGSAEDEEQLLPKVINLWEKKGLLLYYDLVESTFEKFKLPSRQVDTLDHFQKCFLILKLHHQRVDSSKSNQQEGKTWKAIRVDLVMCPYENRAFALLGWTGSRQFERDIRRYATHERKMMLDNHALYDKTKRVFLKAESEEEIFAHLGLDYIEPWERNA

Compound | 3′ tail length [1] | substrate for the polymerase (EFK), incorporation [2] | other results
NCCCCCC(=O)NCc1cc2cn([C@H]3C[C@H](O)[C@@H](COP(=O)(O)OP(=O)(O)OP(=O)(O)O)O3)c(=O)nc2o1 [Compound 4.3a, 6-Methyl-N-(6-amino)-caproamide-3-(5-triphospho-2-deoxy-β-D-erythro-pentofuranosyl)furano[2,3-d]pyrimidin-2-one] | 7-9 bases | a substrate for the polymerase again being able to replace dCTP | substrate quality compared with the analogue with the shorter linker arm [2]: better substrate than (3.3a)
O=C(NCc1cc2cn([C@H]3C[C@H](O)[C@@H](COP(=O)(O)OP(=O)(O)OP(=O)(O)O)O3)c(=O)nc2o1)c1ccc2c(c1)C(=O)OC21c2ccc(O)cc2Oc2cc(O)ccc21 [Compound 3.3b, 5-Carboxyfluoresceinyl-(6-methylamine-3-(5-triphospho-2-deoxy-β-D-erythro-pentofuranosyl)furano[2,3-d]pyrimidin-2-one)] | – | not a substrate for the polymerase using either of the Templates | –
NCCCCCC(=O)NCC=Cc1cn([C@H]2C[C@H](O)[C@@H](COP(=O)(O)OP(=O)(O)OP(=O)(O)O)O2)c(=O)nc1N [5-allylaminocaproamide dCTP, reference compound] | – | – | incorporation by the polymerase ([2]; under similar assay conditions): did not show any incorporation
O=c1nc2c(cn1C1CC(O)C(COP(=O)(O)OP(=O)(O)OP(=O)(O)O)O1)CCCN2 [Compound 1.6, 1-(2′-deoxy-5′-triphospho-β-D-ribofuranosyl)piperidino[2,3-d]pyrimidine-2(1H)-one] | equivalent to those produced by dCTP at the same concentration | – | substrate for EFK, incorporation in place of dCTP [3]: a substrate for EFK and that it was efficiently incorporated in place of dCTP
Cy5-(6-methyl-N-(6-amino)-caproamide-3-(triphospho-2-2deoxy-β-D-erythro-pentofuranosyl)pyrrolo[2,3-d]pyrimidin-2-one [Compound 10.1c] | greater than 30 bases | – | –
O=C(CCCCCNC(=O)c1ccc2c(c1)C(=O)OC21c2ccc(O)cc2Oc2cc(O)ccc21)NCc1cc2cn([C@H]3C[C@H](O)[C@@H](COP(=O)(O)OP(=O)(O)OP(=O)(O)O)O3)c(=O)nc2o1 [Compound 4.3b, 5-FAM-(6-methyl-N-(6-amino)-caproamide-3-(5-triphospho-2-deoxy-β-D-erythro-pentofuranosyl)furano[2,3-d]pyrimidin-2-one)] | 9-14 bases | only incorporated in reactions using Template 2 | –
NCc1cc2cn([C@H]3C[C@H](O)[C@@H](COP(=O)(O)OP(=O)(O)OP(=O)(O)O)O3)c(=O)nc2o1 [Compound 3.3a] | – | not a substrate for the polymerase | –
NCc1cc2cn([C@H]3C[C@H](O)[C@@H](COP(=O)(O)OP(=O)(O)OP(=O)(O)O)O3)c(=O)nc2[nH]1 [Compound 8.1] | – | a substrate for the polymerase being able to substitute for dCTP | –
O=C(CCCCCNC(=O)c1ccc2c(c1)C(=O)OC21c2ccc(O)cc2Oc2cc(O)ccc21)NCc1cc2cn([C@H]3C[C@H](O)[C@@H](COP(=O)(O)OP(=O)(O)OP(=O)(O)O)O3)c(=O)nc2[nH]1 [Compound 10.1b, 5-FAM-(6-methyl-N-(6-amino)-caproamide-3-(5-triphospho-2-deoxy-β-D-erythro-pentofuranosyl)pyrrolo[2,3-d]pyrimidin-2-one)] | 18-24 bases | – | –
NCCCCCC(=O)NCc1cc2cn([C@H]3C[C@H](O)[C@@H](COP(=O)(O)OP(=O)(O)OP(=O)(O)O)O3)c(=O)nc2[nH]1 [Compound 10.1a, 6-methyl-N-(6-amino)-caproamide-3-(5-triphospho-2-deoxy-β-D-erythro-pentofuranosyl)pyrrolo[2,3-d]pyrimidin-2-one] | 7-8 bases | – | substrate quality compared with the analogue with the shorter linker arm [2]: better substrate than (8.1); 33P-dATP Incorporation (TLC) ([4]; 50% (10.1a), balance dCTP): 23.2%; 33P-dATP Incorporation (TLC) ([4]; 75% (10.1a), balance dCTP): 16.5%; 33P-dATP Incorporation (TLC) ([4]; 100% (10.1a), no dCTP): 11.5%; formation of PCR product, agarose gel analysis [5]: resulted in the formation of PCR product; substrate for the polymerase (EFK), incorporation in place of dCTP [6]: surprisingly good substrate
